The source of these data is patent publication US20240358889A1, “PEPTIDE-CONTAINING HYBRID HYDROGEL FOR BONE REGENERATION” (Ramot at Tel-Aviv University Ltd., priority 2022, published 2024).

Ends that are not written are not given here. * marks the point of attachment. Fmoc = O=C(OCC1c2ccccc2-c2ccccc21)*

A short description of the data set: Rheological studies of the hydrogel (strain, frequency, shear rate, time sweep, step strain). Format: physicochemical. As to conditions: fixed strain 0.1%, frequency 5 Hz, 37° C.

Consider Fmoc-Phe-Phe [FmocFF], for which the “storage modulus G′” value is 4,708 Pa.
